{"source": "paper PMC9889419", "about": "(Pharmacological Reports, 2022)", "key": {"mice [1]": {"tested_on": "mice", "details": "ip; cited from earlier work"}, "mice [2]": {"tested_on": "mice", "details": "at 40 and 80 mg/kg, ip; cited from earlier work"}, "Frings mice": {"tested_on": "Frings mice", "details": "cited from earlier work"}, "rats [3]": {"tested_on": "rats", "assay": "Maximal electroshock seizure (MES) test", "type": "in vivo"}, "mice [4]": {"tested_on": "mice", "assay": "6 Hz test", "type": "in vivo", "details": "32 mA, mice, ip", "procedure": "The 6 Hz model test was carried out according to the protocol originally described by Brown et al. [54] and more recently by Barton et al. [55] and Kamiński et al. [47] and is a model of pharmacoresistant epilepsy [56]."}, "rats [5]": {"tested_on": "rats", "type": "in vivo", "details": "ip"}, "rats [6]": {"tested_on": "rats", "type": "in vivo", "details": "ip", "remark": "listed apart in the source"}, "mice [7]": {"tested_on": "mice", "assay": "Rotarod test (neurotoxicity);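 note: in vivo neurotoxicity screen run within the NIH Epilepsy Therapy Screening Program (ETSP, formerly Anticonvulsant Screening Program)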", "type": "in vivo", "details": "mice, ip, […]"}, "rats [8]": {"tested_on": "rats", "assay": "Acute toxicity (ETSP screening)", "type": "in vivo", "details": "ip, 0.5 h"}, "mice [9]": {"tested_on": "mice", "assay": "Subcutaneous pentylenetetrazole seizure test (ScPTZ, SCMET)", "type": "in vivo", "details": "mice, ip, […]", "procedure": "(§3) The assays were carried out within the Epilepsy Therapy Screening Program (ETSP, previously known as the Anticonvulsant Screening Program, ASP), Epilepsy Branch, National Institute of Neurological and Communicative Disorders and Stroke, National Institutes of Health in Rockville, MD, USA [23]."}, "mice [10]": {"tested_on": "mice", "assay": "Formalin test (ETSP, area under the curve)", "type": "in vivo", "details": "20.0 mg/kg, ip"}, "[11]": {"tested_on": "organotypic hippocampal slice cultures", "assay": "Neuroprotection primary screen, excitotoxin NMDA", "type": "cell-based", "details": "NMDA 10 µM; 10 and 100 µM compound", "description": "Gompound 1 : ADD Number: ItSot+ Batct: lE- Date Started:\nCompound 2 : ADD Number: Froso Batct: le Date Completed i l|26-M ar -20 1 O […]\nExcitotoxin: lNmoa lnsult Duration: la Uouo Solvent:\nPrimary Screen Results: ffi […]\nAl lruuoa rolrr,| A2lr'rrr,tOa r Olrrr,t * --.- A3 lr'rnroa r oprvr + lsaoot+ t oplrl+aesogo iopM\nBZ lr.rrr,ron ropr,t , -_-_-- 83 lluoa topt',r * jffi 1 4 t oopM.€sroso 1 oolrM la+eota tooptu*aasoeo roffi […]\nThe 'Primary screen Experiment\" is a qualitative assessment of the ability of a compound to prevent excrtotoxic cell death. organotypic hippocampal slice cultures are treated *ltn r.i-.\"iivr-o-\"spartate (NMDA) or kainic acad (KA) to induce neuronal cell death' Propidium iodide (Pl), a membrane-imper.eant cornpouna, is included in all wells of the culture plate.\nDying cells have compromised *]lT^\"Toj*::, ttr. er rnJy oin \"\" into the cell, intercatate with DNA and fluoresce. Thus, the intensity of the Pl fluorescence is proportional to the amount of cell death in lhe individual itices. ttippocampat slice cullures are treated with the excitotoxin alone, or *i er. inoi\"ui\"o above, with the excitotoxin and either one -qf]bar-a Investigalional compounds at the concentrations indicated. lf neuroprotectron occurs as a consequence of the added […]\n(§1) been treated with the excitotoxin alone.\n(§2) (1 picture or pasted object on this page, not shown here)"}, "[12]": {"tested_on": "organotypic hippocampal slice cultures", "assay": "Neuroprotection primary screen, excitotoxin kainic acid", "type": "cell-based", "details": "kainic acid 20 µM; 10 and 100 µM compound", "method": "Compound 2 : ADD t{umber, b890s0 Batch: lB- Date Compteted. Ect\\,t\"\"201 0 […]\nExcilotoxin: llGinic ncia Insult Duration: l+ Hours Solvent: […]\nAi lxn zopr.,r aZ lxa zopr,r Ae lre zoprta\nBz lr<n zopn er ]ra zopr',t l:+aot a r ooprt/|*aa9o8o l oopM lgaeota t oot,tr,t*gB9o8o t oopM […]\nThe \"Primary screen Experiment\" is a qualitative assessment of the ability of a compound to prevent excitotoxic cell dearh. organotypic hippocampal slice clltures are treated with N-methyl-D-aipartate lNuoa; o; kainic acid (KA) to induce neuronal cell death. Propidium iodide (Pl), a membrane-impermeant compound, is included in all welts of the culture plate.\nDying cells have compromised cell membranes, thus Pl may diffuse into the cell, intercalate with DNA and ftuoresce. Thus, the intensity of the Pl fluorescence is proportional to the amount of cell death in the individual slices. Hippocampal slice cultures are treated with the excitotoxin alone, or where indicated above, with the excitotoxin and either one eltu/o investigational compounds at the concentrations indicated. lf neuroprotection occurs as a consequence of the added […]\nas §1, §2"}, "mice [13]": {"tested_on": "mice", "details": "mice, ip, […]", "procedure": "as §3\n(§4) The obtained compounds were screened for antiseizure activity and neurotoxicity in vivo within the Epilepsy Therapy Screening Program (ETSP, previously known as the Anticonvulsant Screening Program, ASP), Epilepsy Branch, National Institute of Neurological and Communicative Disorders and Stroke, National Institutes of Health in Rockville, MD, USA [23]."}, "rats [14]": {"tested_on": "rats", "details": "ip", "procedure": "as §3"}, "rats [15]": {"tested_on": "rats", "assay": "Rotarod / TOX (neurotoxicity)", "details": "rats, ip", "procedure": "as §3, §4"}, "mice [16]": {"tested_on": "mice", "assay": "iv pentylenetetrazole (PTZ) seizure threshold test", "details": "compound ip", "procedure": "They were also evaluated in the iv pentylenetetrazole (PTZ) test.\nData are expressed as the mean PTZ dose ± SEM for n = 10 that induced clonus or twitch in mice exposed to a particular dose of the test compound"}}, "note": "Read-outs that look alike come from different tables or passages of the source.", "data": [{"compound": "NC(=O)N1c2ccccc2C=Cc2ccccc21", "note": "[Carbamazepine]", "values": [{"measurement": "MES ED50", "setting": "mice [1]", "value": "7.81 (6.32–8.45) mg/kg"}, {"measurement": "6 Hz: Max. protection", "setting": "mice [2]", "value": 75, "unit": "%"}, {"measurement": "Frings mice sound-induced seizures ED50", "setting": "Frings mice", "value": "11.2 (7.73–16.2) mg/kg"}]}, {"compound": "CC[C@H](CO)NCCOc1c(C)cccc1Cl", "note": "[Compound 5, R-(-)-2-((2-(2-chloro-6-methylphenoxy)ethyl)amino)butan-1-ol]", "values": [{"measurement": "MES PI", "setting": "rats [3]; ip", "value": "> 9.12"}, {"measurement": "MES TPE", "setting": "rats [3]; ip", "value": 0.25, "unit": "h"}, {"measurement": "MES ED50", "setting": "rats [3]; ip, […]", "value": "4.65 (2.94–6.88) mg/kg"}, {"measurement": "MES TPE", "setting": "rats [3]; po", "value": 0.5, "unit": "h"}, {"measurement": "6 Hz ED50", "setting": "mice [4]; […]", "value": "33.1 (29–37.8) mg/kg"}, {"measurement": "6 Hz TPE", "setting": "mice [4]", "value": 0.25, "unit": "h"}, {"measurement": "Hippocampal kindling TPE", "setting": "rats [5]", "value": 0.75, "unit": "h"}, {"measurement": "Hippocampal kindling seizure score by Racine (0–5), Rat1", "setting": "rats [5]; at 30 mg/kg", "value": 4}, {"measurement": "Hippocampal kindling seizure score by Racine (0–5), Rat2", "setting": "rats [5]; at 30 mg/kg", "value": 0}, {"measurement": "Pilocarpine-induced status epilepticus prevention: active at", "setting": "rats [6]", "value": 50, "unit": "mg/kg"}, {"measurement": "Prot./Tested", "setting": "rats [6]; 25 mg/kg, 0 h post first Stage III seizure", "value": "2/8"}, {"measurement": "Pilocarpine test: rats died", "setting": "rats [6]; at 100 mg/kg, […]", "value": "2/2"}, {"measurement": "Rotarod TD50", "setting": "mice [7]", "value": "59.80 (43.80–74.20) mg/kg"}, {"measurement": "Acute toxicity: minimal motor impairment at", "setting": "rats [8]", "value": 50, "unit": "mg/kg"}, {"measurement": "SCMET ED50", "setting": "mice [9]", "value": "> 70", "unit": "mg/kg"}, {"measurement": "Area under the curve (I phase)", "setting": "mice [10]", "value": "155.1 ± 44.2"}, {"measurement": "Area under the curve (II phase)", "setting": "mice [10]", "value": "496.7 ± 164.7"}, {"measurement": "Area under the curve, % of control (I phase)", "setting": "mice [10]", "value": "78.7; t14 = 1.3050%"}, {"measurement": "Area under the curve, % of control (II phase)", "setting": "mice [10]", "value": "105.6; t14 = 0.3579%"}, {"measurement": "Area under the curve (II phase)", "setting": "mice [10]; listed as 354009", "value": 496.7}, {"measurement": "Area under the curve, % of control (I phase)", "setting": "mice [10]; listed as 354009", "value": 78.68, "unit": "%"}, {"measurement": "Area under the curve, % of control (II phase)", "setting": "mice [10]; listed as 354009", "value": 105.6, "unit": "%"}, {"measurement": "Test Result (neuroprotection)", "setting": "[11]", "value": "No Neuroprotection"}, {"measurement": "Test Result (neuroprotection)", "setting": "[12]", "value": "No Neuroprotection"}, {"measurement": "MES ED50", "setting": "mice [13]", "value": "18.20 (16.60–20.00) mg/kg"}, {"measurement": "LTG-resistant amygdala seizures: rats with toxicity", "setting": "rats [14]; 30 mg/kg", "value": "3/4"}, {"measurement": "LTG-resistant amygdala seizures: seizure score by Racine (0–5)", "setting": "rats [14]; 30 mg/kg", "value": 3.5}, {"measurement": "LTG-resistant amygdala seizures: rats with toxicity", "setting": "rats [14]; 50 mg/kg", "value": "5/5"}, {"measurement": "LTG-resistant amygdala seizures: seizure score by Racine (0–5)", "setting": "rats [14]; 50 mg/kg", "value": 2.2}, {"measurement": "Rotarod TPE", "setting": "rats [15]", "value": 0.25, "unit": "h"}, {"measurement": "Rotarod TD50", "setting": "rats [15]; […]", "value": "> 30", "unit": "mg/kg"}, {"measurement": "influence on seizure threshold", "setting": "mice [16]", "value": "effect was not shown"}]}]}
